For 16 compounds, IC50 results are on record in US12624018B1, “Inhibitors of RIPK2 and medical uses thereof” (Odyssey Therapeutics, Inc., priority 2022, dated 2026).

One experiment addresses T1, RIPK2 enzyme (Homo sapiens, UniProt O43353).
T1 construct: purchased Carna 09-128
The experiment can be described thus: RIPK2 inhibition (ADP-Glo Kinase Assay). In kind it is biochemical. To be noted: RIPK2 5 nM, ATP 150 μM, MBP substrate, read-out: RIPK2 IC50. The method in brief: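 Swine MBP substrate; compound and 5 nM RIPK2 first mixed for 30 min at room temperature; buffer pH 7.5 HEPES 50 mM with 10 mM MgCl2, 2 mM DTT, 1 mM EGTA, Brij-35, BSA.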
Background: ADP-Glo turns the ADP formed in a reaction into a luminescent signal.

The test system of another experiment is human NOD2 signaling. The experiment can be described thus: Inhibition of human NOD2 signaling in HEK-Blue-hNOD2 cells (L18-MDP stimulated, SEAP reporter). In kind it is cell-based. To be noted: NOD2 ligand stimulation, SEAP reporter, read-out: hNOD2 IC50. The method in brief: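 Read-out is SEAP absorbance at 620 nm after 3 h QUANTI-Blue development of supernatant from HEK293 cells carrying NOD2 and a SEAP reporter (12500/well). Cells got compound (10 points, 3-fold dilutions) and 0.5 ng/mL L18-MDP for 24 h at 37 °C; percent inhibition vs stimulated/unstimulated controls, 4-parameter IC50.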

Experiment [1] relates to TNF-alpha secretion in human whole blood. The experiment can be described thus: Inhibition of TNF-alpha secretion in human whole blood (IFN-gamma primed, L18-MDP stimulated). In kind it is cell-based. Particulars: L18-MDP 100 ng/mL, read-out: Human Whole Blood TNFα IC50. The protocol:
Materials: Assay medium consisted of RPMI 1640 medium (catalogue number: 11875119) and 10% heat inactivated FBS (Cytvia). U-PLEX Biomarker Assay (cat #K15067L-4) to detect levels of TNF-alpha was purchased from Meso Scale Discovery. Heparinized whole blood from healthy donors/volunteers was obtained through Research Blood Components, LLC.
Test compounds were prepared into a 10 mM DMSO solution and serially diluted into 9 points using a 3-fold dilution in a 96 well plate. A 10× working stock solution of recombinant human IFN-gamma (final concentration of 10 ng/mL) was prepared in assay medium and used to prepare a 10× solution of test compound. 20 μL of 10×IFN-gamma and test compound (or DMSO control) was added to a 96-well plate. 160 μL of heparinized whole blood obtained from healthy donors was dispensed into individual wells of the 96-well plate and placed on a plate shaker (150 rpm) and incubated for 60 min at 37° C. in a CO2 incubator. Subsequently, 20 μL of L18-MDP (final concentration of 100 ng/mL) was added to the appropriate wells and further incubated for 16 hours on a plate shaker (150 rpm) at 37° C. in a CO2 incubator. The final concentration of DMSO was 0.05% (v/v) in all wells. After incubation, 100 μL of DPBS was added per well, mixed by shaking at 500 rpm for 2 minutes, followed by centrifugation (400×g for 10 minutes) and collection of supernatants. TNF-alpha in supernatants was measured using MSD immunoassay (MesoScale Discovery). 4-parametric curve fit was used to determine the test compound concentration that results in 50% reduction of TNF-alpha concentration in supernatant relative to assay controls.

Experiment [2] deals with T2, RIPK2 and XIAP protein-protein interaction (Homo sapiens, UniProt O43353).
T2 construct: the N-terminus of full-length RIPK2 was appended with the HaloTag fusion protein; expressed in transfected cells; host or cells: HEK293T
T2 sequence (O43353 whole entry, the tested form may be a part): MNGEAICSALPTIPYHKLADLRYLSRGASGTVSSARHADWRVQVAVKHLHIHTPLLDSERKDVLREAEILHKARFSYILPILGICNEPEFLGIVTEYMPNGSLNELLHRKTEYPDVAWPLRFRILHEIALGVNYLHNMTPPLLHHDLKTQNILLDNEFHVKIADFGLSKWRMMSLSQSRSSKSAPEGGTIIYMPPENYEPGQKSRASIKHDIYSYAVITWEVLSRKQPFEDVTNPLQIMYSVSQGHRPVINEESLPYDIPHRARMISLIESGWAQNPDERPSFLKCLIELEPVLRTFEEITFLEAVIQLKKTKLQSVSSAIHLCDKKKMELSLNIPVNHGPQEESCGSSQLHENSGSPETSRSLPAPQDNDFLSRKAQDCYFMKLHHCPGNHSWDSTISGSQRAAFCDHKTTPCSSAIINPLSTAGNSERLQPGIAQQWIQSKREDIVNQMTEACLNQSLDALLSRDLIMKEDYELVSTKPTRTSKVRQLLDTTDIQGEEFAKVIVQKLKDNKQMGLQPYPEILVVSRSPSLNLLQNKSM
The experiment can be described thus: Inhibition of the interaction of RIPK2 with XIAP (NanoBRET in HEK293T cells). In kind it is cell-based. To be noted: RIPK2 HaloTag / XIAP NanoLuc, read-out: NanoBRET Scaffolding IC50. The method in brief: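 HEK293T cells transiently co-transfected with HaloTag-RIPK2 (N-terminal) and XIAP-NanoLuc (C-terminal) full-length fusions, grown 24 h at 37° C. in Opti-MEM with 4% FBS. Compounds tested as 10-point 3-fold dilutions; NanoBRET ratio taken as 618 nm acceptor over 460 nm donor emission.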
(Bioluminescence resonance energy transfer reports proximity on the nanometre scale.)

The mark [3] stands for this setting: Homo sapiens, HEK-Blue hNOD2, HEK-Blue-hNOD2 cells.

Where two headings read alike, the source gives them in different places.

T1 sequence (O43353 1-299 limits assumed): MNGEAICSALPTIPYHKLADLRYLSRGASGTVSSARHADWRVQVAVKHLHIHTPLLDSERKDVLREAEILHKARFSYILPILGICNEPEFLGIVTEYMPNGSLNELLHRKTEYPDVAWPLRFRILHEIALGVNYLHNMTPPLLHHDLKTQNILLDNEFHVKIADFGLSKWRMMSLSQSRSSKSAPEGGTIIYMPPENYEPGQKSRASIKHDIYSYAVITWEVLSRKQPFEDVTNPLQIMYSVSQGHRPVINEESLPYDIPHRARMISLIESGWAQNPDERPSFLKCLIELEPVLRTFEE

Turning to `Cc1cc(CC(=O)Nc2cnn(C(C)(C)C)c2)ccc1Oc1ccnc2ccc(OC3CCN(C)CC3)cc12` [Compound 82, N-(1-(tert-butyl)-1H-pyrazol-4-yl)-2-(3-methyl-4-((6-((1-methyl-piperidin-4-yl)oxy)quinolin-4-yl)oxy)phenyl) acetamide], the IC50 at RIPK2 enzyme was less than 2.5 nM; in the experiment on human NOD2 signaling (HEK-Blue-hNOD2 cells), 1.9 nM; in experiment [1] (16 hours), 4 nM; in experiment [2] it was 6 nM.
`Cc1cc(CC(=O)Nc2cnn(C(C)(C)C)c2)ccc1Oc1ncnc2ccc(OC3CCN(C)CC3)cc12` [Compound 84, N-(1-(tert-butyl)-1H-pyrazol-4-yl)-2-(3-methyl-4-((6-((1-methyl-piperidin-4-yl)oxy)quinazolin-4-yl)oxy)phenyl) acetamide]: the IC50 at RIPK2 enzyme amounted to 9.3 nM; in the experiment with human NOD2 signaling (HEK-Blue-hNOD2 cells) it was 19.2 nM; in experiment [1] (16 hours), 4 nM; in experiment [2] it was 37 nM.
Turning to `CC(C)(C)n1cc(NC(=O)Cc2ccc(Oc3ccnc4ccc(S(C)(=O)=O)cc34)c(C(F)F)c2)cn1` [Compound 92, N-(1-(tert-butyl)-1H-pyrazol-4-yl)-2-(3-(difluoromethyl)-4-((6-(methylsulfonyl)quinolin-4-yl)oxy)phenyl)acetamide], the IC50 is less than 2.5 nM on RIPK2 enzyme; 6.6 nM in the experiment on human NOD2 signaling (setting [3]); 40 nM in experiment [1] (Homo sapiens, 16 h); 132 nM in experiment [2].
As for `Cc1c(Oc2ccnc3ccc(S(=O)(=O)C4CC4)cc23)ccc(CC(=O)Nc2cnn(C(C)(C)C)c2)c1F` [Compound 174, N-(1-(tert-butyl)-1H-pyrazol-4-yl)-2-(4-((6-(cyclopropylsulfonyl)quinolin-4-yl)oxy)-2-fluoro-3-methylphenyl)acetamide], the IC50 is less than 2.5 nM on RIPK2 enzyme; 0.2 nM with human NOD2 signaling (setting [3]); 2 nM in experiment [1] (Homo sapiens, 16 h); 5 nM in experiment [2].
For `Cc1cc(CC(=O)Nc2cnn(C(C)(C)C)c2)ccc1Oc1ccnc2ccc(P(C)(C)=O)cc12` [Compound 179, N-(1-(tert-butyl)-1H-pyrazol-4-yl)-2-(4-((6-(dimethylphosphoryl)quinolin-4-yl)oxy)-3-methylphenyl) acetamide], the IC50 on RIPK2 enzyme was less than 2.5 nM; in the experiment on human NOD2 signaling (setting [3]), 38.1 nM; in experiment [1] (Homo sapiens, 16 h), 6 nM; in experiment [2] it was 465 nM.
As to `Cc1cc(CC(=O)Nc2noc(C(C)(C)C)n2)ccc1Oc1ccnc2ccc(S(C)(=O)=O)cc12` [Compound 182, N-(5-(tert-butyl)-1,2,4-oxadiazol-3-yl)-2-(3-methyl-4-((6-(methylsulfonyl)quinolin-4-yl)oxy)phenyl) acetamide], the IC50 is less than 2.5 nM at RIPK2 enzyme; 2 nM with human NOD2 signaling (setting [3]); 14 nM in experiment [1] (Homo sapiens, 16 h); 18 nM in experiment [2].
Regarding `Cc1cc(CC(=O)Nc2cnn(C34CC(C3)C4)c2)ccc1Oc1ccnc2ccc(S(C)(=O)=O)cc12` [Compound 239, N-(1-(bicyclo[1.1.1]pentan-1-yl)-1H-pyrazol-4-yl)-2-(3-methyl-4-((6-(methylsulfonyl)quinolin-4-yl)oxy)phenyl)acetamide], the IC50 on RIPK2 enzyme is less than 2.5 nM; in the experiment with human NOD2 signaling (setting [3]) it was 2.9 nM; in experiment [1] (Homo sapiens, 16 h) it was 37 nM; in experiment [2], 20 nM.
As to `Cc1cc(CC(=O)Nc2cnn(C(C)(C)C)c2)ccc1Oc1ncnc2ccc(CN3CCNCC3)cc12` [Compound 253, N-(1-(tert-butyl)-1H-pyrazol-4-yl)-2-(3-methyl-4-((6-(piperazin-1-ylmethyl)quinazolin-4-yl)oxy)phenyl)acetamide], the IC50 at RIPK2 enzyme is less than 2.5 nM; in the experiment on human NOD2 signaling (setting [3]), 7.2 nM; in experiment [1] (Homo sapiens, 16 h), 7 nM; in experiment [2] it was 174 nM.
The matching figures for `Cc1cc(CC(=O)Nc2cnn(C(C)(C)C)c2)cc(F)c1Oc1ccnc2ccc(S(C)(=O)=O)cc12` [Compound 299, N-(1-(tert-butyl)-1H-pyrazol-4-yl)-2-(3-fluoro-5-methyl-4-((6-(methylsulfonyl)quinolin-4-yl)oxy)phenyl)acetamide]: less than 2.5 nM, 3.4 nM, 49 nM and 73 nM.
Turning to `COc1cc2nccc(Oc3ccc(CC(=O)Nc4cnn(C(C)(C)C)c4)cc3C(F)F)c2cc1S(C)(=O)=O` [Compound 413, N-(1-(tert-butyl)-1H-pyrazol-4-yl)-2-(3-(difluoromethyl)-4-((7-methoxy-6-(methylsulfonyl)quinolin-4-yl)oxy)phenyl) acetamide], the IC50 at RIPK2 enzyme is less than 2.5 nM; with human NOD2 signaling (setting [3]) it was 2.5 nM; in experiment [1] (Homo sapiens, 16 h) it was 13 nM; in experiment [2], 27 nM.
In the case of `CC(C)(C)n1cc(NC(=O)Cc2cc(Cl)c(Oc3ccnc4ccc(S(C)(=O)=O)cc34)cc2F)cn1` [Compound 429, N-(1-(tert-butyl)-1H-pyrazol-4-yl)-2-(5-chloro-2-fluoro-4-((6-(methylsulfonyl)quinolin-4-yl)oxy)phenyl)acetamide], the IC50 at RIPK2 enzyme is less than 2.5 nM; in the experiment with human NOD2 signaling (setting [3]), 1.6 nM; in experiment [1] (Homo sapiens, 16 h) it was 18 nM; in experiment [2], 44 nM.
`Cc1cc(CC(=O)Nc2nnc(C(C)(C)C)s2)c(F)cc1Oc1ccnc2ccc(S(C)(=O)=O)cc12` [Compound 443, N-(5-(tert-butyl)-1,3,4-thiadiazol-2-yl)-2-(2-fluoro-5-methyl-4-((6-(methylsulfonyl)quinolin-4-yl)oxy)phenyl) acetamide]: the IC50 on RIPK2 enzyme was less than 2.5 nM; in the experiment with human NOD2 signaling (setting [3]), 1.1 nM; in experiment [1] (Homo sapiens, 16 h) it was 83 nM; in experiment [2] it was 11 nM.
The matching figures for `Cc1cc(CC(=O)Nc2cnn(C(C)(C)C)c2)c(F)cc1Oc1ccnc2cc(F)c(C(N)=O)cc12` [Compound 465, 4-(4-(2-((1-(tert-butyl)-1H-pyrazol-4-yl)amino)-2-oxoethyl)-5-fluoro-2-methylphenoxy)-7-fluoroquinoline-6-carboxamide]: less than 2.5 nM, 0.2 nM, 2.6 nM and 4.2 nM.
On to `Cc1cc(CC(=O)Nc2cnn(C(C)(C)C)c2)cc(F)c1Oc1ccnc2ccc(C(N)=O)cc12` [Compound 468, 4-(4-(2-((1-(tert-butyl)-1H-pyrazol-4-yl)amino)-2-oxoethyl)-2-fluoro-6-methylphenoxy)quinoline-6-carboxamide], for which the IC50 at RIPK2 enzyme was less than 2.5 nM; with human NOD2 signaling (setting [3]) it was 2.1 nM; in experiment [1] (Homo sapiens, 16 h) it was 8.4 nM; in experiment [2], 69.1 nM.
With `Cc1c(Oc2ccnc3ccc(S(C)(=O)=O)cc23)cc(F)c(CC(=O)Nc2cnn(C(C)(C)C)c2)c1F` [Compound 472, N-(1-(tert-butyl)-1H-pyrazol-4-yl)-2-(2,6-difluoro-3-methyl-4-((6-(methylsulfonyl)quinolin-4-yl)oxy)phenyl)acetamide], the IC50 on RIPK2 enzyme was less than 2.5 nM; in the experiment on human NOD2 signaling (setting [3]), 0.3 nM; in experiment [1] (Homo sapiens, 16 h) it was 4.1 nM; in experiment [2], 13.3 nM.
Turning to `[2H]C([2H])([2H])NC(=O)c1ccc2nccc(Oc3cc(F)c(CC(=O)Nc4cnn(C(C)(C)C)c4)cc3C)c2c1` [Compound 492, 4-(4-(2-((1-(tert-butyl)-1H-pyrazol-4-yl)amino)-2-oxoethyl)-5-fluoro-2-methylphenoxy)-N-(methyl-d3)quinoline-6-carboxamide], the IC50 at RIPK2 enzyme is less than 2.5 nM; in the experiment with human NOD2 signaling (setting [3]), 3.7 nM; in experiment [1] (Homo sapiens, 16 h) it was 5.9 nM; in experiment [2], 22 nM.
